*1 amine or outer side, *2 acyl side, *3 side chain or, on linkers, in order; H or OH if unused. Where a SMILES comes first, the peptide text is derived from it. Bridges are numbered along the chain shown (N, C = ends). [ ]: non-standard residue; d: D form. The star is where a group is joined. hPhe(3-Cl-4-CF3) = N[C@@H](CCc1ccc(C(F)(F)F)c(Cl)c1)C(=O)O; X39 = Cc1ccc(C[C@@H](C(=O)[*:2])N(CC(C)C)[*:1])cc1; NMePhe(4-Me) = CN[C@@H](Cc1ccc(C)cc1)C(=O)O; NMeGly(cPent) = CN[C@H](C(=O)O)C1CCCC1; NMeD = CN[C@@H](CC(=O)O)C(=O)O; NMeL = CN[C@@H](CC(C)C)C(=O)O; Morpholide = C1CN(*)CCO1; NMeA = CN[C@@H](C)C(=O)O; Ac5c = NC1(C(=O)O)CCCC1; Aze = O=C(O)[C@@H]1CCN1; Sar = CNCC(=O)O
Key:
[1] = biological target: GDP-bound NRAS wild-type protein (Homo sapiens, UniProt P01111); assay: Binding to NRAS by surface plasmon resonance (SPR), Single Cycle Kinetics; conditions: for NRAS/KRAS (ratio of KD value for NRAS to KD value for KRAS): GDP-bound NRAS wild-type vs GDP-bound KRAS wild-type
Sequence of GDP-bound NRAS wild-type protein (P01111 whole entry): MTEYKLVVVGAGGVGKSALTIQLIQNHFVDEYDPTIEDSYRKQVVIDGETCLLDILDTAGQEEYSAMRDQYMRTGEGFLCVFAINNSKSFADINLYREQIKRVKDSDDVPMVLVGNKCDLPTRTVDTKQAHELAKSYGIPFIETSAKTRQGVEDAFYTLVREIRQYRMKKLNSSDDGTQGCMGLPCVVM

[2] = biological target: GDP-bound HRAS wild-type protein (Homo sapiens, UniProt P01112); assay: Binding to HRAS by surface plasmon resonance (SPR), Single Cycle Kinetics; conditions: for HRAS/KRAS (ratio of KD value for HRAS to KD value for KRAS): GDP-bound HRAS wild-type vs GDP-bound KRAS wild-type
Sequence of GDP-bound HRAS wild-type protein (P01112 whole entry): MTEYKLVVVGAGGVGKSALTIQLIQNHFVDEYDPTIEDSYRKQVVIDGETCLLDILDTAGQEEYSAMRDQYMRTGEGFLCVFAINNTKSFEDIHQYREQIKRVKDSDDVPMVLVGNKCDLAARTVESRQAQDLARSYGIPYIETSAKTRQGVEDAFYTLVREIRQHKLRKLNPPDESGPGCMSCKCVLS

[3] = SPR, GDP-bound wild-type proteins

Row | Structure (SMILES) | NRAS/KRAS (ratio of KD value for NRAS to KD value for KRAS) ([1]; SPR) | HRAS/KRAS (ratio of KD value for HRAS to KD value for KRAS) ([2]; SPR) | NRAS/KRAS (ratio of KD for GDP-bound NRAS wild-type to KD for KRAS) ([1]; SPR) | HRAS/KRAS (ratio of KD for GDP-bound HRAS wild-type to KD for KRAS) ([2]; SPR) | also measured
1 | CCCO[C@@H]1C[C@H]2C(=O)NC3(CC(C)(C)C3)C(=O)N(C)[C@@H](C3CCCC3)C(=O)N(C)[C@H](C(=O)N(C)C)CC(=O)N(C)[C@H]3CCCCc4ccc(cc4)C[C@@H](C(=O)N(C)CC(=O)N[C@@H](CCc4ccc(C(F)(F)F)c(OC)c4)C(=O)N2C1)N1CC/C=C\C[C@@H](C1=O)N(C)C(=O)CN(C)C(=O)[C@H]([C@@H](C)CC)NC3=O [PP3077] |  |  |  |  | NRAS/KRAS (ratio of KD value with respect to GDP-bound NRAS wild-type protein to KD value with respect to KRAS) [1, 3]: A (a compound having 10 or more and less than 20 is denoted as A); HRAS/KRAS (ratio of KD value with respect to GDP-bound HRAS wild-type protein to KD value with respect to KRAS) [2, 3]: B (a compound having 3 or more and less than 10 is denoted as B)
2 | CC[C@H](C)[C@@H]1NC(=O)[C@H](CC2CCC2)N(C)C(=O)C[C@@H](C(=O)N(C)C)N(C)C(=O)[C@H](C2CCCC2)N(C)C(=O)C2(CC(C)(C)C2)NC(=O)[C@@H]2CCCN2C(=O)[C@H](CCc2cc(F)c(C(F)(F)F)c(F)c2)NC(=O)CN(C)C(=O)[C@H](Cc2ccc(C(F)(F)F)cc2)N2CC/C=C\C[C@@H](C2=O)N(C)C(=O)CN(C)C1=O [PP1728] | A (a compound having 10 or more and less than 20 is denoted as A) | A (a compound having 10 or more and less than 20 is denoted as A) |  |  | 
3 | CCCC[C@H]1C(=O)N[C@@H]([C@@H](C)CC)C(=O)N(C)CC(=O)N(C)[C@H]2C/C=C\CCN(C2=O)[C@@H](Cc2ccc(C)cc2)C(=O)N(C)CC(=O)N[C@@H](CCc2cc(F)c(C(F)(F)F)c(F)c2)C(=O)N2C[C@H](OCC)C[C@H]2C(=O)NC2(CC(C)(C)C2)C(=O)N(C)[C@@H](C2CCCC2)C(=O)N(C)[C@H](C(=O)N(C)CC)CC(=O)N1C [PP2808] |  |  |  |  | NRAS/KRAS (ratio of KD value with respect to GDP-bound NRAS wild-type protein to KD value with respect to KRAS) ([1]; class symbols): B (a compound having 3 or more and less than 10 is denoted as B); HRAS/KRAS (ratio of KD value with respect to GDP-bound HRAS wild-type protein to KD value with respect to KRAS) ([2]; class symbols): B (a compound having 3 or more and less than 10 is denoted as B)
4 | CC[C@H](C)[C@@H]1NC(=O)[C@H](CC(C)C)N(C)C(=O)C[C@@H](C(=O)N2CCOCC2)N(C)C(=O)[C@H](C2CCCC2)N(C)C(=O)C2(CCCC2)NC(=O)[C@@H]2CCCN2C(=O)[C@H](CCc2ccc(C(F)(F)F)c(Cl)c2)NC(=O)CN(C)C(=O)[C@H](Cc2ccc(C)cc2)N(CC(C)C)C(=O)[C@@H]2CCN2C(=O)[C@H](C)N(C)C1=O [PP0056] ([NMeL]I[NMeA][Aze][X39][Sar][hPhe(3-Cl-4-CF3)]P[Ac5c][NMeGly(cPent)][NMeD]-Morpholide; lactam N-11) |  |  | C (A compound having a KD ratio of 0.1 or more and less than 3 is denoted as C) | B (a compound having 3 or more and less than 10 is denoted as B) | 
5 | CC[C@H](C)[C@@H]1NC(=O)[C@H](CC(C)C)N(C)C(=O)C[C@@H](C(=O)N2CCOCC2)N(C)C(=O)[C@H](C2CCCC2)N(C)C(=O)C2(CCCC2)NC(=O)[C@@H]2CCCN2C(=O)[C@H](CCc2ccc(C(F)(F)F)c(Cl)c2)NC(=O)CN(C)C(=O)[C@H](Cc2ccc(C)cc2)N(C)C(=O)[C@@H]2CCN2C(=O)[C@H](C)N(C)C1=O [PP0001] ([NMeL]I[NMeA][Aze][NMePhe(4-Me)][Sar][hPhe(3-Cl-4-CF3)]P[Ac5c][NMeGly(cPent)][NMeD]-Morpholide; lactam N-11) |  |  | C (A compound having a KD ratio of 0.1 or more and less than 3 is denoted as C) | C (A compound having a KD ratio of 0.1 or more and less than 3 is denoted as C) | 
6 | CCCN(C)C(=O)[C@@H]1CC(=O)N(C)[C@@H](CC)C(=O)N[C@@H]([C@@H](C)CC)C(=O)N(C)CC(=O)N(C)[C@H]2C/C=C\CCN(C2=O)[C@@H](Cc2ccc(C(F)(F)F)cc2)C(=O)N(C)CC(=O)N[C@@H](CCc2ccc(C(F)(F)F)c(OC)c2)C(=O)N2C[C@H](OCC)C[C@H]2C(=O)NC2(CC(C)(C)C2)C(=O)N(C)[C@@H](C2CCCC2)C(=O)N1C [PP1654] | A (a compound having 10 or more and less than 20 is denoted as A) | A (a compound having 10 or more and less than 20 is denoted as A) |  |  | 
